Data from US8192962B2, “Processes for detecting toxic substances” (Daikin Industries, Ltd., priority 2001, dated 2012).

System: Genes belonging to other category
Experiment: DNA chip mRNA expression in yeast, genes belonging to other category (Table 9)
Format: cell-based, Saccharomyces cerevisiae S288C
Procedure: Yeast (Saccharomyces cerevisiae S288C (α SUC2mal mel gap2 CUP1)) were incubated at 25° C. on YPD medium (yeast extract 1%, polypepton 2%, glucose 2%). One of toxic chemical substances was added to the cells at logarithmic growth phase, and the cells were further incubated for two hours. Cells were cultured without any chemical substance in the same condition, and were used as control. Concentrations of the chemical substances were defined to inhibit the growth of the yeast but not lead to death.
After completion of the incubation, the culture was centrifuged to collect the cells. To the cells, sodium acetate buffer (50 mM sodium acetate, 10 mM EDTA, 1% SDS) was added, and the mixture was shaken at 65° C. for five minutes, followed by returning to room temperature, and obtaining the supernatant, of which the procedures were repeated two times. To the supernatant, ½ amount of a solution of phenol/chloroform was added, and the mixture was centrifuged to give a supernatant, which was added with an equal amount of chloroform, and the mixture was centrifuged to give a supernatant. To the supernatant, an equal amount of isopropanol containing 0.3 M sodium acetate was added, and the mixture was allowed to stand at room temperature for 30 minutes, after which the mixture was centrifuged to give a sediment of the whole RNAs. Seventy % ethanol was added to the sediment, and the mixture was again centrifuged to give a sediment, which was then dried and dissolved in water. mRNA was isolated from the whole RNAs as followings. In view of the fact that a poly A chain is attached to the 3′ terminus of mRNA, a polynucleotide having a poly T structure which was immobilized on the surface of latex beads was used to trap the mRNA, and then the mRNA was washed and eluted with spine column (Oligotex-dT30<Super>mRNA Purification Kit, Takara). Reverse transcription of the mRNA was conducted with a reverse transcriptase (Super Script II Reverse Transcriptase; catalogue No. 18064-014, GibcoBRL) using fluorescence-labeled nucleotides to give cDNAs that were introduced with Cy3-dUTP or Cy5-dUTP during the reverse transcription.
The labeled cDNAs were dissolved in TE buffer (10mM Tris-HCl/1 mM EDTA, pH8.0), and the solution was dropped on the DNA chip containing the whole genes of yeast (DNA Chip Research Inc. Japan) so that the cDNAs were hybridized on the DNA chip at 65° C. for over 12 hours. The fluoresces intensity of the DNA chip was read with a scanner, and the ratio relative to the fluorescence intensity resulting from the absence of chemical substance was estimated as the following, which is shown in Tables 1 to 9: […]

Structure (SMILES): CCCCCCCCCCCCOS(=O)(=O)[O-].[Na+] [(18), sodium lauryl sulfate]
- The level of expressed mRNA in the presence of chemical substance/The level of expressed mRNA in the absence of chemical substance (yeast gene YDR392W): 1.2
- The level of expressed mRNA in the presence of chemical substance/The level of expressed mRNA in the absence of chemical substance (yeast gene YDR403W): 1.0
- The level of expressed mRNA in the presence of chemical substance/The level of expressed mRNA in the absence of chemical substance (yeast gene YDR432W): 0.7
- The level of expressed mRNA in the presence of chemical substance/The level of expressed mRNA in the absence of chemical substance (yeast gene YDR481C): 1.4
- The level of expressed mRNA in the presence of chemical substance/The level of expressed mRNA in the absence of chemical substance (yeast gene YDR510W): 1.5
- The level of expressed mRNA in the presence of chemical substance/The level of expressed mRNA in the absence of chemical substance (yeast gene YEL042W): 0.8
- The level of expressed mRNA in the presence of chemical substance/The level of expressed mRNA in the absence of chemical substance (yeast gene YEL066W): 1.1
- The level of expressed mRNA in the presence of chemical substance/The level of expressed mRNA in the absence of chemical substance (yeast gene YER039C): 1.1
- The level of expressed mRNA in the presence of chemical substance/The level of expressed mRNA in the absence of chemical substance (yeast gene YER066W): 1.1
- The level of expressed mRNA in the presence of chemical substance/The level of expressed mRNA in the absence of chemical substance (yeast gene YER107C): 1.2
- The level of expressed mRNA in the presence of chemical substance/The level of expressed mRNA in the absence of chemical substance (yeast gene YER130C): 2.5
- The level of expressed mRNA in the presence of chemical substance/The level of expressed mRNA in the absence of chemical substance (yeast gene YFL022C): 0.8
- The level of expressed mRNA in the presence of chemical substance/The level of expressed mRNA in the absence of chemical substance (yeast gene YFL028C): 1.5
- The level of expressed mRNA in the presence of chemical substance/The level of expressed mRNA in the absence of chemical substance (yeast gene YFL029C): 1.4
- The level of expressed mRNA in the presence of chemical substance/The level of expressed mRNA in the absence of chemical substance (yeast gene YFL043C): 1.2
- The level of expressed mRNA in the presence of chemical substance/The level of expressed mRNA in the absence of chemical substance (yeast gene YFR004W): 1.4
- The level of expressed mRNA in the presence of chemical substance/The level of expressed mRNA in the absence of chemical substance (yeast gene YFR014C): 2.9
- The level of expressed mRNA in the presence of chemical substance/The level of expressed mRNA in the absence of chemical substance (yeast gene YFR050C): 1.7
- The level of expressed mRNA in the presence of chemical substance/The level of expressed mRNA in the absence of chemical substance (yeast gene YGL093W): 1.2
- The level of expressed mRNA in the presence of chemical substance/The level of expressed mRNA in the absence of chemical substance (yeast gene YGL094C): 0.9
- The level of expressed mRNA in the presence of chemical substance/The level of expressed mRNA in the absence of chemical substance (yeast gene YGL141W): 1.2
- The level of expressed mRNA in the presence of chemical substance/The level of expressed mRNA in the absence of chemical substance (yeast gene YGL150C): 0.8
- The level of expressed mRNA in the presence of chemical substance/The level of expressed mRNA in the absence of chemical substance (yeast gene YGL158W): 1.1
- The level of expressed mRNA in the presence of chemical substance/The level of expressed mRNA in the absence of chemical substance (yeast gene YGL166W): 1.9
- The level of expressed mRNA in the presence of chemical substance/The level of expressed mRNA in the absence of chemical substance (yeast gene YGL207W): 0.8
- The level of expressed mRNA in the presence of chemical substance/The level of expressed mRNA in the absence of chemical substance (yeast gene YGL229C): 0.9
- The level of expressed mRNA in the presence of chemical substance/The level of expressed mRNA in the absence of chemical substance (yeast gene YGR036C): 1.1
- The level of expressed mRNA in the presence of chemical substance/The level of expressed mRNA in the absence of chemical substance (yeast gene YGR048W): 1.2
- The level of expressed mRNA in the presence of chemical substance/The level of expressed mRNA in the absence of chemical substance (yeast gene YGR135W): 1.9
- The level of expressed mRNA in the presence of chemical substance/The level of expressed mRNA in the absence of chemical substance (yeast gene YGR136W): 1.8
- The level of expressed mRNA in the presence of chemical substance/The level of expressed mRNA in the absence of chemical substance (yeast gene YGR186W): 1.2
- The level of expressed mRNA in the presence of chemical substance/The level of expressed mRNA in the absence of chemical substance (yeast gene YGR189C): 1.7
- The level of expressed mRNA in the presence of chemical substance/The level of expressed mRNA in the absence of chemical substance (yeast gene YGR213C): 8.5
- The level of expressed mRNA in the presence of chemical substance/The level of expressed mRNA in the absence of chemical substance (yeast gene YGR232W): 1.2
- The level of expressed mRNA in the presence of chemical substance/The level of expressed mRNA in the absence of chemical substance (yeast gene YGR257C): 1.3
- The level of expressed mRNA in the presence of chemical substance/The level of expressed mRNA in the absence of chemical substance (yeast gene YHL024W): 1.4
- The level of expressed mRNA in the presence of chemical substance/The level of expressed mRNA in the absence of chemical substance (yeast gene YHR004C): 1.6
- The level of expressed mRNA in the presence of chemical substance/The level of expressed mRNA in the absence of chemical substance (yeast gene YHR027C): 1.0
- The level of expressed mRNA in the presence of chemical substance/The level of expressed mRNA in the absence of chemical substance (yeast gene YHR071W): 1.0
- The level of expressed mRNA in the presence of chemical substance/The level of expressed mRNA in the absence of chemical substance (yeast gene YHR139C): 1.3
- The level of expressed mRNA in the presence of chemical substance/The level of expressed mRNA in the absence of chemical substance (yeast gene YHR142W): 1.3
- The level of expressed mRNA in the presence of chemical substance/The level of expressed mRNA in the absence of chemical substance (yeast gene YHR163W): 1.2
- The level of expressed mRNA in the presence of chemical substance/The level of expressed mRNA in the absence of chemical substance (yeast gene YIL050W): 1.1
- The level of expressed mRNA in the presence of chemical substance/The level of expressed mRNA in the absence of chemical substance (yeast gene YIL076W): 2.5
- The level of expressed mRNA in the presence of chemical substance/The level of expressed mRNA in the absence of chemical substance (yeast gene YIL123W): 1.0
- The level of expressed mRNA in the presence of chemical substance/The level of expressed mRNA in the absence of chemical substance (yeast gene YIL140W): 1.0
- The level of expressed mRNA in the presence of chemical substance/The level of expressed mRNA in the absence of chemical substance (yeast gene YIL142W): 0.8
- The level of expressed mRNA in the presence of chemical substance/The level of expressed mRNA in the absence of chemical substance (yeast gene YIR039C): 1.1
